1 compound from patent publication US4130647A, “Methods for treating congestive heart failure and ischemic heart disease” (priority 1977, dated 1978) can be followed below.

The subject of this assay is patients with chronic left sided congestive heart failure. The assay is described as follows: Treadmill exercise duration until marked dyspnea, trimazosin (Example 3). Particulars: for improvement in exercise duration vs. placebo: p<0.025. Format: in vivo, human. The source says:
Sixteen men between 41 and 66 years of age with chronic left sided congestive heart failure were subjects. Twelve patients had coronary heart disease with an old healed myocardial infarction, one patient had alcoholic cardiomyopathy, and three patients had idiopathic cardiomyopathy as the cause of their chronic heart failure. All 16 patients had cardiomegaly on physical examination and on their chest roentgenogram, a left ventricular third heart sound heard by auscultation, and evidence of pulmonary venous congestion on their chest roentgenogram. Their baseline standing blood pressures ranged between 114 and 150 mm. Hg. systolic and 72 and 100 mm. Hg. diastolic.
The patients received digitalis and diuretic therapy for 6 to 48 months. Their dose of digitalis and diuretic was not changed during this study. Except for potassium chloride, no other medications were taken by any of the 16 patients during this study. All patients signed informed consent forms.
After baseline measurements, all 16 patients received one capsule of single-blind placebo three times daily for two weeks. The patients then received in a double-blind, randomized study trimazosin or placebo for six weeks. Eight patients received one placebo capsule three times daily for weeks one and two, two placebo capsules three times daily for weeks three and four, and three placebo capsules three times daily for weeks five and six of the double-blind period. Seven patients received one 50 mg. trimazosin capsule three times daily for weeks one and two, two 50 mg. trimazosin capsules three times daily for weeks three and four, and three 50 mg. trimazosin capsules three times daily for weeks five and six of the double-blind period. One patient (patient number five on trimazosin) received one 50 mg. trimazosin capsule three times daily for 32 days. Their trimazosin dose was not increased after two weeks of this dose because their standing systolic blood pressure was 104/70 mm. Hg.
Two practice treadmill tests were performed by all patients prior to the baseline period. The patients performed a multi-stage uninterrupted treadmill exercise test until the onset of marked dyspnea in the baseline period, and approximately two hours after their morning dose of medication after two weeks of single-blind placebo, after three weeks of double-blindmedication, and after six weeks of double-blind medication. The patients exercised at a treadmill speed of 1.7 m.p.h. and a treadmill grade of 0% for the first 3 min., a treadmill speed of 1.7 m.p.h. and a treadmill grade of 10% for the next 3 min., at a treadmill speed of 2.5 m.p.h. and a treadmill grade of 12% for the third 3 min. period, and then at a treadmill speed of 3.4 m.p.h. and a treadmill grade of 14%.
The data listed in Tables 1-4 were analyzed using Student's t test for independent means. Fisher's exact test was used to analyze the data on improvement of symptoms and the data on changes in roentgenographic evidence of pulmonary venous congestion.

Where “and” joins values, the source holds several entries; their conditions need not be identical. Equal values may be shown once.

As for `COc1cc2c(N)nc(N3CCN(C(=O)OCC(C)(C)O)CC3)nc2c(OC)c1OC` [trimazosin, 2-hydroxy-2-methylpropyl 4-(4-amino-6,7,8-trimethoxy-2-quinazolinyl)-1-piperazinecarboxylate], the “Double-blind trimazosin (3 weeks) exercise time” value (300 mg. daily (patient 5: 150 mg. daily), individual patients) is 180 s and 428 s and 398 s and 280 s and 298 s and 389 s and 476 s and 322 s. In addition, the “Double-blind trimazosin (6 weeks) exercise time” value (450 mg. daily, individual patients) was 232 s and 295 s and 406 s and 435 s and 627 s and 527 s and 363 s. Also, the “Change from average of baseline and placebo exercise times” value runs as follows: (3 weeks, 300 mg. daily (patient 5: 150 mg. daily), individual patients) “+110%”; (6 weeks, 450 mg. daily, individual patients) “+136% and +122%”. Besides, where the note is “3 weeks, mean, baseline/placebo average 255.5”, the “Double-blind trimazosin (3 weeks) exercise time, mean” value was 346.4 s. Moreover, the “improvement in exercise duration vs. placebo” value reads like this: (3 weeks) “significantly greater”; (6 weeks) “significantly greater”. Moreover, the “Double-blind trimazosin (6 weeks) exercise time, mean” value (6 weeks, 450 mg. daily, mean) was determined as 412.1 s.
